Test results published in ChEMBL document CHEMBL3044586, “Design, synthesis, and anticonvulsant screening of some substituted piperazine and aniline derivatives of 5-phenyl-oxazolidin-2,4-diones and 5,5-diphenylimidazolidin-2,4 diones” (Med Chem Res, 2012).
Activity calls are given as the source filed them. No cut-off for these calls is given here.

Experiments:
Mus musculus [1] = assay: Anticonvulsant activity in Mus musculus Swiss albino (mouse) assessed as reduction in maximal electroshock-induced seizure at 30 to 300 mg/kg, ip measured after 0.5 hr; format: functional, organism-based
Mus musculus [2] = assay: Neurotoxicity against Mus musculus Swiss albino (mouse) assessed as inability to maintain equilibrium on rod at 30 to 300 mg/kg, ip measured after 0.5 hr by rotarod test; format: toxicity, organism-based; design: dose 30-300 mg/kg, route intraperitoneal; conditions: in vivo
Mus musculus [3] = assay: Neurotoxicity against Mus musculus Swiss albino (mouse) assessed as inability to maintain equilibrium on rod at 300 mg/kg, ip measured after 4 hr by rotarod test; format: toxicity, organism-based; design: dose 300 mg/kg, route intraperitoneal; conditions: in vivo
Mus musculus [4] = assay: Anticonvulsant activity in Mus musculus Swiss albino (mouse) assessed as reduction in maximal electroshock-induced seizure at 300 mg/kg, ip measured after 4 hr; format: functional, organism-based; design: dose 300 mg/kg
Mus musculus [5] = assay: Neurotoxicity against Mus musculus Swiss albino (mouse) assessed as inability to maintain equilibrium on rod at 30 to 300 mg/kg, ip measured after 4 hr by rotarod test; format: toxicity, organism-based; design: dose 30-300 mg/kg, route intraperitoneal; conditions: in vivo
Mus musculus [6] = assay: Anticonvulsant activity in Mus musculus Swiss albino (mouse) assessed as reduction in maximal electroshock-induced seizure at 30 to 300 mg/kg, ip measured after 4 hr; format: functional, organism-based

## O=C1NC(c2ccccc2)(c2ccccc2)C(=O)N1CCN1CCN(c2ccc(O)cc2)CC1
Mus musculus [1]
  Activity: inactive
Mus musculus [2]
  Activity: Non-toxic
Mus musculus [3]
  Activity: Toxic
Mus musculus [4]
  Activity: Active

## Cc1ccc(NCCN2C(=O)NC(c3ccccc3)(c3ccccc3)C2=O)cc1
Mus musculus [1]
  Activity: inactive
Mus musculus [2]
  Activity: Non-toxic
Mus musculus [5]
  Activity: Non-toxic
Mus musculus [6]
  Activity: inactive

## Cc1ccc(NCCN2C(=O)OC(c3ccccc3)C2=O)cc1 (stereo unspecified)
Mus musculus [1]
  Activity: inactive
Mus musculus [2]
  Activity: Non-toxic
Mus musculus [5]
  Activity: Non-toxic
Mus musculus [6]
  Activity: inactive

## O=C1NC(c2ccccc2)(c2ccccc2)C(=O)N1CCN1CCN(c2ccc(Cl)cc2)CC1
Mus musculus [1]
  Activity: inactive
Mus musculus [2]
  Activity: Non-toxic
Mus musculus [5]
  Activity: Non-toxic
Mus musculus [6]
  Activity: inactive

## O=C1NC(c2ccccc2)(c2ccccc2)C(=O)N1CCN1CCN(c2ccc([N+](=O)[O-])cc2)CC1
Mus musculus [1]
  Activity: inactive
Mus musculus [2]
  Activity: Non-toxic
Mus musculus [3]
  Activity: Toxic
Mus musculus [4]
  Activity: Active

## O=C1OC(c2ccccc2)C(=O)N1CCN1CCN(c2ccccn2)CC1 (stereo unspecified)
Mus musculus [1]
  Activity: inactive
Mus musculus [2]
  Activity: Non-toxic
Mus musculus [5]
  Activity: Non-toxic
Mus musculus [6]
  Activity: inactive

## O=C1OC(c2ccccc2)C(=O)N1CCNc1ccc(F)cc1 (stereo unspecified)
Mus musculus [1]
  Activity: inactive
Mus musculus [2]
  Activity: Non-toxic
Mus musculus [3]
  Activity: Toxic
Mus musculus [4]
  Activity: Active

## O=C1OC(c2ccccc2)C(=O)N1CCN1CCN(c2ccc(O)cc2)CC1 (stereo unspecified)
Mus musculus [1]
  Activity: inactive
Mus musculus [2]
  Activity: Non-toxic
Mus musculus [5]
  Activity: Non-toxic
Mus musculus [6]
  Activity: inactive

## Cc1ccc(N2CCN(CCN3C(=O)OC(c4ccccc4)C3=O)CC2)cc1 (stereo unspecified)
Mus musculus [1]
  Activity: inactive
Mus musculus [2]
  Activity: Non-toxic
Mus musculus [5]
  Activity: Non-toxic
Mus musculus [6]
  Activity: inactive

## O=C1OC(c2ccccc2)C(=O)N1CCN1CCN(c2ccc(Cl)cc2)CC1 (stereo unspecified)
Mus musculus [1]
  Activity: inactive
Mus musculus [2]
  Activity: Non-toxic
Mus musculus [5]
  Activity: Non-toxic
Mus musculus [6]
  Activity: inactive

## O=C1OC(c2ccccc2)C(=O)N1CCN1CCN(c2ccc([N+](=O)[O-])cc2)CC1 (stereo unspecified)
Mus musculus [1]
  Activity: inactive
Mus musculus [2]
  Activity: Non-toxic
Mus musculus [3]
  Activity: Toxic
Mus musculus [4]
  Activity: Active

## O=C1NC(c2ccccc2)(c2ccccc2)C(=O)N1CCN1CCN(c2ccccn2)CC1
Mus musculus [1]
  Activity: inactive
Mus musculus [2]
  Activity: Non-toxic
Mus musculus [5]
  Activity: Non-toxic
Mus musculus [6]
  Activity: inactive

## O=C1NC(c2ccccc2)(c2ccccc2)C(=O)N1CCNc1ccc(Cl)cc1
Mus musculus [1]
  Activity: inactive
Mus musculus [2]
  Activity: Non-toxic
Mus musculus [5]
  Activity: Non-toxic
Mus musculus [6]
  Activity: inactive

## O=C1NC(c2ccccc2)(c2ccccc2)C(=O)N1CCNc1ccc(O)cc1
Mus musculus [1]
  Activity: inactive
Mus musculus [2]
  Activity: Non-toxic
Mus musculus [5]
  Activity: Non-toxic
Mus musculus [6]
  Activity: inactive
